# Test results taken from patent US20250144067A1, “PERSONALIZED STARVATION THERAPY FOR CANCER” (Faeth Therapeutics, Inc., priority 2021, published 2025).
# Counter-ions that a name gives are not always drawn. Like-named read-outs stand apart in the source and are kept apart here.
# Key:
# [1] = test system: NCI-H292 lung cancer cells; assay: FDA drug screening, complete media vs cholesterol-free media without statin (TABLE 1); assay type: cell-based, human
# [2] = test system: NCI-H292 lung cancer cells; assay: FDA drug screening, complete media vs cholesterol-free media with simvastatin (TABLE 2); assay type: cell-based, human
# [3] = NCI-H292 cells, cholesterol-free media without statin
# [4] = complete vs cholesterol-free media, greater than 0 enhanced anti-cancer activity, about 0 neutral, below 0 antagonists
# [5] = NCI-H292 cells, drug in cholesterol-free media with simvastatin 0.04 μM
# [6] = NCI-H292 cells, drug in complete media
# [7] = complete media vs cholesterol-free media + simvastatin (0.04 μM), >0 enhanced anti-cancer activity, about 0 neutral, <0 antagonist
# [8] = NCI-H292 cells, FDA drug library screen, cholesterol-free media with simvastatin 0.04 μM
# [9] = NCI-H292 cells, FDA drug library screen, complete media
# [10] = complete media minus cholesterol-free media + simvastatin, >0 enhanced anti-cancer activity, about 0 neutral, <0 antagonist
# [11] = Complete minus Cholesterol-free, greater than 0 enhanced anti-cancer activity, about 0 neutral, below 0 antagonists
# [12] = NCI-H292 cells in cholesterol-free media without statin
# [13] = NCI-H292 cells in complete media
# [14] = Complete minus Cholesterol-free, greater than 0 enhanced anti-cancer activity, about 0 neutral, below 0 antagonist
# [15] = NCI-H292 cells, FDA drug library screen, cholesterol-free media without statin
# [16] = NCI-H292 cells, cholesterol-free media with simvastatin 0.04 μM, cell growth value in FDA drug screen
# [17] = NCI-H292 cells, complete media, cell growth value in FDA drug screen
# [18] = complete vs cholesterol-free media, […]
# [19] = NCI-H292 cells, cholesterol-free media without statin, FDA drug library screen
# [20] = NCI-H292 cells, complete media, FDA drug library screen
# [21] = complete media vs cholesterol-free media + simvastatin (0.04 μM), […]
# [22] = Complete minus Cholesterol-free, >0 enhanced anti-cancer activity, about 0 neutral, <0 antagonist
# [23] = NCI-H292 cells, FDA library drug in cholesterol-free media with simvastatin 0.04 μM
# [24] = NCI-H292 cells, FDA library drug in complete media
# [25] = complete vs cholesterol-free media, >0 enhanced anti-cancer activity, about 0 neutral, <0 antagonist
# [26] = NCI-H292 cells, cholesterol-free media with simvastatin 0.04 μM, FDA drug library screen (TABLE 2)
# [27] = NCI-H292 cells, complete media, FDA drug library screen (TABLE 2)
# [28] = complete media minus cholesterol-free media + simvastatin (0.04 μM), >0 enhanced anti-cancer activity, about 0 neutral, <0 antagonist
compound,measurement,setting,value
CC(C)c1cc2c(cc1S(=O)(=O)O)[C@@]1(C)CCC[C@@](C)(C(=O)O)[C@@H]1CC2 [Ecabet (sodium)],Cholesterol-free,[1]; [3],1.17
same,Complete,"[1]; NCI-H292 cells, complete media",0.8018
same,Difference,[1]; [4],−0.37
same,Cholesterol-free media + simvastatin (0.04 μM),[2]; [5],1.124
same,Complete Media,[2]; [6],0.9102
same,Difference,[2]; [7],−0.21
O=c1n(CCCN2CCN(c3cccc(Cl)c3)CC2)nc2ccccn12 [Trazodone (hydrochloride)],Cholesterol-free,[1]; [3],1.4
same,Complete,"[1]; NCI-H292 cells, complete media",1.032
same,Difference,[1]; [4],−0.37
same,Cholesterol-free media + simvastatin (0.04 μM),[2]; [8],0.8105
same,Complete Media,[2]; [9],1.053
same,Difference,[2]; [10],0.24
COc1cccc(-c2c(C)n(Cc3c(F)cccc3C(F)(F)F)c(=O)n(C[C@H](NCCCC(=O)O)c3ccccc3)c2=O)c1F [(R)-Elagolix],Difference,[1]; [11],−0.49
same,Cholesterol-free,[1]; [12],1.394
same,Complete,[1]; [13],0.8996
same,Cholesterol-free media + simvastatin (0.04 μM),[2]; [8],1.16
same,Complete Media,[2]; [9],1.077
same,Difference,[2]; [7],−0.08
COc1cc2ncnc(Nc3ccc(F)c(Cl)c3)c2cc1NC(=O)/C=C/CN1CCCCC1 [Dacomitinib],Difference,[1]; [14],−0.12
same,Cholesterol-free,[1]; [15],0.3597
same,Complete,[1]; [9],0.2371
same,Cholesterol-free media + simvastatin (0.04 μM),[2]; [16],0.3301
same,Complete Media,[2]; [17],0.437
same,Difference,[2]; [10],0.11
CCCSc1ccc2nc(NC(=O)OC)[nH]c2c1 [Albendazole],Cholesterol-free,[1],0.9001
same,Complete,[1],0.9862
same,Difference,[1],0.09
same,Cholesterol-free media + simvastatin (0.04 μM),[2],1.236
same,Complete Media,[2],0.9882
same,Difference,[2],−0.25
CCOC(=O)c1cncn1[C@H](C)c1ccccc1 [Etomidate],Cholesterol-free,[1]; [3],1.122
same,Complete,"[1]; NCI-H292 cells, complete media",0.7993
same,Difference,[1]; [18],−0.32
same,Cholesterol-free media + simvastatin (0.04 μM),[2]; [8],0.9001
same,Complete Media,[2]; [9],1.134
same,Difference,"[2]; complete media minus cholesterol-free media + simvastatin, […]",0.23
CC(C)OC(=O)CCC/C=C\C[C@@H]1[C@@H](/C=C/C(F)(F)COc2ccccc2)[C@H](O)C[C@@H]1O [Tafluprost],Difference,[1]; [14],−0.18
same,Cholesterol-free,[1]; [15],0.9541
same,Complete,[1]; [9],0.7736
same,Cholesterol-free media + simvastatin (0.04 μM),[2]; [5],1.261
same,Complete Media,[2]; [6],1.095
same,Difference,[2]; [7],−0.17
Paromomycin (sulfate),Cholesterol-free,[1]; [19],0.541
same,Complete,[1]; [20],1.15
same,Difference,[1]; [18],0.61
same,Cholesterol-free media + simvastatin (0.04 μM),[2]; [5],1.383
same,Complete Media,[2]; [6],1.216
same,Difference,[2]; [21],−0.17
CNCCCC1c2ccccc2C=Cc2ccccc21 [Protriptyline (hydrochloride)],Difference,[1]; [22],−0.19
same,Cholesterol-free,[1]; [3],1.347
same,Cholesterol-free media + simvastatin (0.04 μM),[2]; [23],1.142
same,Complete Media,[2]; [24],0.7923
same,Difference,[2]; [7],−0.35
CCOC(=O)C1=C[C@]2(CC)CCCN3CCc4c(n1c1ccccc41)[C@@H]32 [Vinpocetine],Difference,[1]; [14],−0.09
same,Cholesterol-free,[1]; [15],0.912
same,Complete,[1]; [9],0.8209
same,Cholesterol-free media + simvastatin (0.04 μM),[2]; [16],0.854
same,Complete Media,[2]; [17],0.8952
same,Difference,[2]; [10],0.04
Cc1ncc(COP(=O)(O)O)c(C)c1O [4-Deoxypyridoxine 5′-phosphate],Cholesterol-free,[1]; [19],0.7389
same,Difference,[1]; [18],0.41
same,Cholesterol-free media + simvastatin (0.04 μM),[2]; [5],1.284
same,Complete Media,[2]; [6],1.065
same,Difference,[2]; [21],−0.22
CN(C)C(=O)c1cc2cnc(Nc3ccc(N4CCNCC4)cn3)nc2n1C1CCCC1 [Ribociclib],Difference,[1]; [22],−0.30
same,Cholesterol-free,[1]; [3],1.15
same,Complete,"[1]; NCI-H292 cells, complete media",0.8537
same,Cholesterol-free media + simvastatin (0.04 μM),[2]; [16],0.6195
same,Complete Media,[2]; [17],0.7338
same,Difference,[2]; [10],0.11
Garenoxacin (Mesylate hydrate),Cholesterol-free,[1]; [3],1.769
same,Complete,"[1]; NCI-H292 cells, complete media",1.3
same,Difference,[1]; [4],−0.47
same,Cholesterol-free media + simvastatin (0.04 μM),[2]; [5],1.436
same,Complete Media,[2]; [6],1.268
same,Difference,[2]; [7],−0.17
OCCN1C[C@H](O)[C@@H](O)[C@H](O)[C@H]1CO [Miglitol],Difference,[1]; [14],−0.11
same,Cholesterol-free,[1]; [15],0.916
same,Complete,[1]; [9],0.8049
same,Cholesterol-free media + simvastatin (0.04 μM),[2]; [5],1.367
same,Complete Media,[2]; [6],1.199
same,Difference,[2]; [7],−0.17
C/C=C(/C(=C/C)c1ccc(O)cc1)c1ccc(O)cc1 [Dienestrol],Cholesterol-free,[1]; [19],0.6505
same,Complete,[1]; [20],1.078
same,Difference,[1]; [25],0.43
same,Cholesterol-free media + simvastatin (0.04 μM),[2]; [16],0.8618
same,Complete Media,[2]; [17],0.9909
same,Difference,[2]; [10],0.13
C[C@@H]1CCO[C@H]2Cn3cc(C(=O)NCc4ccc(F)cc4F)c(=O)c(O)c3C(=O)N12 [Dolutegravir],Difference,[1]; [22],−0.20
same,Cholesterol-free,[1]; [3],0.9033
same,Complete,"[1]; NCI-H292 cells, complete media",0.7062
same,Cholesterol-free media + simvastatin (0.04 μM),[2]; [26],0.5964
same,Complete Media,[2]; [27],0.5738
same,Difference,[2]; [28],−0.02
CCN(CC)CCOC(=O)C(Cc1cccc2ccccc12)CC1CCCO1.O=C(O)C(=O)O (stereo not drawn) [Naftidrofuryl (oxalate)],Difference,[1]; [22],−0.04
same,Cholesterol-free,[1]; [19],1.015
same,Complete,[1]; [20],0.9733
same,Cholesterol-free media + simvastatin (0.04 μM),[2]; [26],1.139
same,Complete Media,[2]; [27],1.076
same,Difference,[2]; [28],−0.06
O=C(O[C@H]1CN2CCC1CC2)N1CCc2ccccc2[C@@H]1c1ccccc1 [Solifenacin (hydrochloride)],Cholesterol-free,[1]; [3],1.128
same,Complete,"[1]; NCI-H292 cells, complete media",0.8222
same,Difference,[1]; [4],−0.31
same,Cholesterol-free media + simvastatin (0.04 μM),[2]; [16],0.865
same,Complete Media,[2]; [17],0.978
same,Difference,[2]; [10],0.11
CN(C)C(=N)N=C(N)N [Metformin],Difference,[1]; [11],−0.64
same,Cholesterol-free,[1]; [12],1.603
same,Complete,[1]; [13],0.9656
same,Cholesterol-free media + simvastatin (0.04 μM),[2]; [8],1.921
same,Difference,[2]; [28],−0.91
NCCS [Cysteamine hydrochloride],Cholesterol-free,[1]; [19],1.255
same,Complete,[1]; [20],1.431
same,Difference,[1]; [25],0.18
same,Cholesterol-free media + simvastatin (0.04 μM),[2]; [8],0.9975
same,Complete Media,[2]; [9],0.86
same,Difference,[2]; [7],−0.14
COc1cccc(N(C)C(=S)Oc2ccc3c(c2)CCCC3)n1 [Liranaftate],Cholesterol-free,[1],1.279
same,Complete,[1],0.8388
same,Difference,[1],−0.44
same,Cholesterol-free media + simvastatin (0.04 μM),[2],0.9604
same,Complete Media,[2],0.9217
same,Difference,[2],−0.04
OC[C@@H](O)[C@@H](O[C@H]1O[C@H](CO)[C@@H](O)[C@H](O)[C@H]1O)[C@H](O)[C@@H](O)CO [Maltitol],Cholesterol-free,[1]; [3],1.093
same,Complete,"[1]; NCI-H292 cells, complete media",0.7088
same,Difference,[1]; [4],−0.38
same,Cholesterol-free media + simvastatin (0.04 μM),[2]; [23],1.264
same,Complete Media,[2]; [24],0.9377
same,Difference,[2]; [7],−0.33
COc1cc2c(cc1OC)[C@H]1C[C@@H](OC(=O)[C@@H](N)C(C)C)[C@H](CC(C)C)CN1CC2 [Valbenazine],Difference,[1]; [14],−0.16
same,Cholesterol-free,[1]; [15],1.298
same,Complete,[1]; [9],1.135
same,Cholesterol-free media + simvastatin (0.04 μM),[2]; [23],1.305
same,Complete Media,[2]; [24],1.011
same,Difference,[2]; [7],−0.29
